Earlier results, collected in PubChem BioAssay AID1259409 (Chemical Carcinogenesis Research Information System (CCRIS), 2018).

System: rodent chemically induced tumor inhibition, incidence and multiplicity
Assay: CCRIS tumor inhibitor studies
Settings: Route [Inhibitor]: ORAL

## Cn1c(=O)c2c(ncn2C)n(C)c1=O
Carcinogen: 2-AMINO-1-METHYL-6-PHENYLIMIDAZO[4,5-B]PYRIDINE [105650-23-5], Dose [Inhibitor]: 0.1% IN DRINKING WATER FOR 54 WK (STUDY DURATION: 54 WK), Species: RAT, Strain/Sex: F344/DUCRJ/FEMALE, Target Tissue: Type of Lesion: MAMMARY GLAND: ADENOMA OR ADENOCARCINOMA, Dose [Carcinogen]: 0.02% IN DIET FOR 54 WK (STUDY DURATION: 54 WK), Promoter: NONE
  tumour outcome (control, treated, inhibition, significance): 8/20 (40%), 2/20 (10%), 75%, p<0.05
Carcinogen: 4-(METHYLNITROSAMINO)-1-(3-PYRIDYL)-1-BUTANONE, 64091-91-4, Dose [Inhibitor]: 0, 1120 MG IN DRINKING WATER FOR 13 WK BEGINNING 2 WK PRIOR TO CARCINOGEN TREATMENT (STUDY DURATION: 18 WK), Species: MOUSE, Strain/Sex: STRAIN-A/FEMALE, Target Tissue: Type of Lesion: LUNG: ADENOMA, Dose [Carcinogen]: 11.65 MG/KG 3/WK FOR 10 WK, Promoter: NONE USED
  tumour outcome (control, treated, inhibition, significance): 100%, 100%, 0%, not significant
Carcinogen: 4-(METHYLNITROSAMINO)-1-(3-PYRIDYL-1-BUTANONE), 64091-91-4, Dose [Inhibitor]: 0, 170 PPM IN DRINKING WATER FOR 22WK BEGINNING 1 WK PRIOR TO CARCINOGEN TREATMENT (STUDY DURATION:101 WK), Species: RAT, Strain/Sex: F344/MALE, Target Tissue: Type of Lesion: LIVER: TUMOR, Dose [Carcinogen]: 1.5 MG/KG 3/WK FOR 20 WK, Promoter: NONE USED
  tumour outcome (control, treated, inhibition, significance): 11/32 (34%), 5/20 (25%), 26%, not significant
Carcinogen: 4-(METHYLNITROSAMINO)-1-(3-PYRIDYL-1-BUTANONE), 64091-91-4, Dose [Inhibitor]: 0, 170 PPM IN DRINKING WATER FOR 22 WK BEGINNING 1 WK PRIOR TO CARCINOGEN TREATMENT (STUDY DURATION:101 WK), Species: RAT, Strain/Sex: F344/MALE, Target Tissue: Type of Lesion: LUNG:TUMOR, Dose [Carcinogen]: 1.5 MG/KG 3/WK FOR 20 WK, Promoter: NONE USED
  tumour outcome (control, treated, inhibition, significance): 15/32 (47%), 4/20 (20%), 57%, not significant
Carcinogen: 4-(METHYLNITROSAMINO)-1-(3-PYRIDYL-1-BUTANONE), 64091-91-4, Dose [Inhibitor]: 0, 170 PPM IN DRINKING WATER FOR 22 WK BEGINNING 1 WK PRIOR TO CARCINOGEN TREATMENT (STUDY DURATION:101 WK), Species: RAT, Strain/Sex: F344/MALE, Target Tissue: Type of Lesion: NASAL CAVITY: TUMOR, Dose [Carcinogen]: 1.5 MG/KG 3/WK FOR 20 WK, Promoter: NONE USED
  tumour outcome (control, treated, inhibition, significance): 6/32 (19%), 3/20 (15%), 21%, not significant
Carcinogen: 4-(METHYLNITROSAMINO)-1-(3-PYRIDYL-1-BUTANONE), 64091-91-4, Dose [Inhibitor]: 0, 680 PPM IN DRINKING WATER FOR 22 WK BEGINNING 1 WK PRIOR TO CARCINOGEN TREATMENT (STUDY DURATION:101 WK), Species: RAT, Strain/Sex: F344/MALE, Target Tissue: Type of Lesion: LUNG:TUMOR, Dose [Carcinogen]: 1.5 MG/KG 3/WK FOR 20 WK, Promoter: NONE USED
  tumour outcome (control, treated, inhibition, significance): 15/32 (47%), 2/20 (10%), 79%, p<0.01
Carcinogen: 4-(METHYLNITROSAMINO)-1-(3-PYRIDYL-1-BUTANONE), 64091-91-4, Dose [Inhibitor]: 0, 680 PPM IN DRINKING WATER FOR 22 WK BEGINNING 1 WK PRIOR TO CARCINOGEN TREATMENT (STUDY DURATION: 101 WK), Species: RAT, Strain/Sex: F344/MALE, Target Tissue: Type of Lesion: NASAL CAVITY: TUMOR, Dose [Carcinogen]: 1.5 MG/KG 3/WK FOR 20 WK, Promoter: NONE USED
  tumour outcome (control, treated, inhibition, significance): 6/32 (19%), 5/20 (25%), -32%, not significant
Carcinogen: 4-METHYLNITROSAMINO-1-(3-PYRIDYL)-1-BUTANONE, 64091-91-4, Dose [Inhibitor]: 0, 1120 PPM IN DRINKING WATER 2 WK PRIOR TO CARCINOGEN AND CONTINUING FOR 13 WK (STUDY DURATION: 29 WK), Species: MOUSE, Strain/Sex: A/J/FEMALE, Target Tissue: Type of Lesion: LUNG: ADENOMA, Dose [Carcinogen]: 11.65 MG/KG IN CORN OIL 3/WK FOR 10 WK, Promoter: NONE USED
  tumour outcome (control, treated, inhibition, significance): 100%, 100%, 0%, not significant
Carcinogen: 7,12-DIMETHYLBENZ[A]ANTHRACENE, 57-97-6, Dose [Inhibitor]: 0, 500 MG/L IN DRINKING WATER BEGINNING AT 27 D OF AGE AND CONTINUING TO 59 D OF AGE (STUDY DURATION: 52 WK), Species: RAT, Strain/Sex: SPRAGUE-DAWLEY/FEMALE, Target Tissue: Type of Lesion: MAMMARY GLAND: BENIGN TUMOR, Dose [Carcinogen]: 0.5 MG/100 G BW ONCE AT 55 D OF AGE, Promoter: NONE USED
  tumour outcome (control, treated, inhibition, significance): 71/73 (97%), 65/70 (93%), 4%, not significant
Carcinogen: 7,12-DIMETHYLBENZ[A]ANTHRACENE, 57-97-6, Dose [Inhibitor]: 0, 500 MG/L IN DRINKING WATER BEGINNING AT 27 D OF AGE AND CONTINUING TO 59 D OF AGE (STUDY DURATION: 52 WK), Species: RAT, Strain/Sex: SPRAGUE-DAWLEY/FEMALE, Target Tissue: Type of Lesion: MAMMARY GLAND: CARCINOMA, Dose [Carcinogen]: 0.5 MG/100 G BW ONCE AT 55 D OF AGE, Promoter: NONE USED
  tumour outcome (control, treated, inhibition, significance): 42/73 (58%), 20/70 (29%), 50%, p<0.001
Carcinogen: 7,12-DIMETHYLBENZ[A]ANTHRACENE, 57-97-6, Dose [Inhibitor]: 0, 500 MG/L IN DRINKING WATER BEGINNING AT 59 D OF AGE AND CONTINUING FOR DURATION OF STUDY (STUDY DURATION: 48 WK), Species: RAT, Strain/Sex: SPRAGUE-DAWLEY/FEMALE, Target Tissue: Type of Lesion: MAMMARY GLAND: BENIGN TUMOR, Dose [Carcinogen]: 0.5 MG/100 G BW ONCE AT 55 D OF AGE, Promoter: NONE USED
  tumour outcome (control, treated, inhibition, significance): 70/72 (97%), 55/62 (89%), 8%, p,0.05
Carcinogen: 7,12-DIMETHYLBENZ[A]ANTHRACENE, 57-97-6, Dose [Inhibitor]: 0, 500 MG/L IN DRINKING WATER BEGINNING AT 59 D OF AGE AND CONTINUING FOR DURATION OF STUDY (STUDY DURATION: 48 WK), Species: RAT, Strain/Sex: SPRAGUE-DAWLEY/FEMALE, Target Tissue: Type of Lesion: MAMMARY GLAND: CARCINOMA, Dose [Carcinogen]: 0.5 MG/100 G BW ONCE AT 55 D OF AGE, Promoter: NONE USED
  tumour outcome (control, treated, inhibition, significance): 39/72 (54%), 31/62 (50%), 7%, not significant
Carcinogen: 7,12-DIMETHYLBENZ[A]ANTHRACENE, 57-97-6, Dose [Inhibitor]: 0, 500 MG/L IN DRINKING WATER OF 58 DAY OLD VIRGIN RATS (STUDY DURATION: 56 WK), Species: RAT, Strain/Sex: SPRAGUE-DAWLEY/FEMALE, Target Tissue: Type of Lesion: MAMMARY GLAND: CARCINOMA, Dose [Carcinogen]: 2 MG/100 G BW ONCE AT 55 D OF AGE, Promoter: NONE USED
  tumour outcome (control, treated, inhibition, significance): 95%, 100%, -5%, not significant
